Results on 18 compounds are retold here after patent US8278301B2, “2-alkylbenzoxazole carboxamides as 5HT3 modulators” (Albany Molecular Research, Inc., priority 2006, dated 2012).

Where a name gives a salt, the structure may show the parent alone.

In assay [1] the target is T1, human 5-HT3 receptor (Homo sapiens, UniProt P46098).
T1 sequence (P46098 24-478): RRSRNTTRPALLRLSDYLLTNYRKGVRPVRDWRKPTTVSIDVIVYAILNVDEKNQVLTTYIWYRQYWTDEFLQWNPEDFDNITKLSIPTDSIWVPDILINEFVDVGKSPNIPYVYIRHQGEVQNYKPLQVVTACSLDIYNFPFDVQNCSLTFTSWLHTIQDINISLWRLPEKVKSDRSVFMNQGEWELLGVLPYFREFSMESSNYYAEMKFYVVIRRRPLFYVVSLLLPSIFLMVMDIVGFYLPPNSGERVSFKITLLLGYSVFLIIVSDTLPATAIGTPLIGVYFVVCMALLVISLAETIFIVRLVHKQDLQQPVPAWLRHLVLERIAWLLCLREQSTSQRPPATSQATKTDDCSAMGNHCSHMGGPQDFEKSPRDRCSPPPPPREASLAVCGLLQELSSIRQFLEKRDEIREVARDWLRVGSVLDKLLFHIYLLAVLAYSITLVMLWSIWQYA
Nature of the assay: Compound affinity for the human 5-HT3 receptor (Assay D), [3H]BRL 43694 radioligand binding, Cerep. Also noted: host or cells: CHO cells. How it is done:
Compound Affinity for the Human 5-HT3Receptor (Assay D)
Compounds were tested by Cerep, Le Bois l'Evêque—B.P. 1-86600 Celle, L'Evescault, France in a radioligand binding assay using the human recombinant 5-HT3 receptor (CHO cells, Hope, A. G., Peters, J. A., Brown, A. M., Lambert, J. J. and Blackburn, T. P. Brit. J. Pharmacol., 1996, 118: 1237-1245) and [^3H]BRL 43694 (ligand) with a […] at 22° C. For the above studies, the non-specific binding determinant was MDL 72222 (10 μM). The IC50 values (concentration causing a half-maximal inhibition of control specific binding) and Hill coefficients were determined by non-linear regression analysis of the competition curves using Hill equation curve fitting. The inhibition constants (Ki) were calculated from the Cheng Prusoff equation (Ki=IC50/(1+(L/KD)), where L=concentration of radioligand in the assay, and KD=affinity of the radioligand for the receptor).
(§1) In the table below, the assay in which the data were obtained is shown (as A, B. C, or D) along with the data.

The target of the next assay is T2, mouse 5-HT3 receptor (Mus musculus, UniProt P23979).
T2 construct: host or cells: mouse neuroblastoma cells (N1E-155 as printed)
T2 sequence (P23979 24-489): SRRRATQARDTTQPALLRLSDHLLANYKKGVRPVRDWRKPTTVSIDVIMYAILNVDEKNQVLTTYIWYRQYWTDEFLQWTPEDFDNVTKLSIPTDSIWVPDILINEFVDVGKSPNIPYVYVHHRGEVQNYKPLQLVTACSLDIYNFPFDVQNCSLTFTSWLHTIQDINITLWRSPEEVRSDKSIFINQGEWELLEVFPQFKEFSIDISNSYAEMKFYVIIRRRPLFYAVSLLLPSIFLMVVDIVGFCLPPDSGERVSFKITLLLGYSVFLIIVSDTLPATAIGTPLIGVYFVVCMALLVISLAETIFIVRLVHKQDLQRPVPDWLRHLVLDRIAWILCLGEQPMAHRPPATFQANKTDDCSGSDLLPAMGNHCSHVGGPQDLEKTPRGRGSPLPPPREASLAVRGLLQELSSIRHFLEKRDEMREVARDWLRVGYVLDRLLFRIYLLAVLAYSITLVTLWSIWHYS
Nature of the assay: Compound affinity for the mouse 5-HT3 receptor (Assay C), [3H]-GR65630 radioligand binding, Novoscreen. The settings on record: Assay C; single concentration 100 nM, in duplicate; [3H]-GR65630; read-out: Mouse % Inhibition @ 100 nM. How it is done: Compound Affinity for the Mouse 5-HT3Receptor (Assay C)
Compounds were tested by Novoscreen Biosciences Corporation, 7170 Standard Drive, Hanover, Md. in a radioligand binding assay using the mouse 5-HT3 receptor derived from mouse neuroblastoma cells and [^3H]-GR65630 (ligand). The non-specific binding determinant was MDL 72222. Compounds were tested at a single concentration of 100 nM in duplicate. Percent inhibition is reported. In order to evaluate the relative affinity of the various compounds for the 5-HT3 receptor, N1E-155 cell lines were developed to express the target protein. For binding, these cells were homogenized, centrifuged and washed with buffer (20 mM HEPES, 150 mM NaCl, pH 7.4) then suspended in 0.5 mL of buffer and [^3H]-GR65630 added at a concentration of 3.5×10^−10 M. An initial single concentration of 10^−7 M of the test compound was then added. Incubation was carried out at room temperature for 60 minutes at 25° C. then was terminated by rapid removal of the incubation medium. Radioactivity was assessed using liquid scintillation spectrophotometry after exposure to scintillation cocktail for at least three hours. […] Ki values were then calculated from the Cheng-Prusoff equation. In all of the above binding studies the non-specific determinant was MDL-72222 (1.0 μM).
as §1

For assay [2], the target named is T1, human 5-HT3 receptor. Nature of the assay: Compound affinity for the human 5-HT3 receptor (Assay B), SPA radioligand binding with [9-methyl-3H]BRL-43694. Also noted: purchased Perkin Elmer. How it is done:
Compound Affinity for the Human 5-HT3 Receptor (Assay B)
The relative affinity of the various compounds for the human 5-HT3 receptor was measured in a radioligand binding assay, using a scintillation proximity assay (SPA) format. Test compounds were dissolved to 10 mM in 100% DMSO, then serially diluted at 10× assay concentrations in 100% DMSO in 96-well polypropylene plates and further diluted to 4× assay concentrations with the assay buffer. Samples were incubated in 50 mM Tris-HCl, pH 7.5, 3 mM MgCl2, 1 mM EDTA and 10% DMSO with 10 nM [9-methyl-3H]BRL-43694 (Perkin Elmer), 3 μg of human 5-HT3 receptor membranes (Perkin Elmer) and 0.5 mg/mL SPA beads (WGA PVT, Amersham Biosciences) in a final volume of 0.2 mL. Binding reactions were set up in wells of PicoPlates-96 (Perkin Elmer) by adding consecutively 50 μL of each competing compound or buffer, SPA beads, the radioligand and 5-HT3 receptor membranes. After 60-min incubation at room temperature on a Nutator mixer, plates were centrifuged for 15 min at 1,500 rpm, followed by incubation in the dark for 30 min. Radioactivity was counted in the TopCount microplate counter (Perkin Elmer) for 5 min. Total binding control contained buffer only; nonspecific binding was determined in the presence of 30 μM MDL-72222. Specific binding was determined by subtracting nonspecific binding from total binding. All experiments were performed in duplicate using ten concentrations of a competing ligand, with ondansetron included as a control in every run. IC50 values were determined from specific binding data using XLfit4.1 curve fitting software from IDBS Ltd. Ki values were then calculated from the Cheng-Prusoff equation.
as §1

[3] abbreviates: Assay D, recombinant receptor in CHO cells, [3H]BRL 43694, Cheng-Prusoff, read-out: Human 5HT3 Ki.
[4] abbreviates: Assay B, SPA, [9-methyl-3H]BRL-43694, Cheng-Prusoff, read-out: Human 5HT3 Ki.

Usually Ki stands for a measure of affinity in units of concentration, obtained from inhibition or displacement. One may read the inhibition as the drop in the measured response relative to a control, in per cent.

In the case of `CC(C)(C)c1nc2c(C(=O)N[C@@H]3CN4CCC3CC4)cccc2o1` [Example 4, (S)—N-(1-Azabicyclo[2.2.2]oct-3-yl)-2-tert-butylbenzoxazole-4-carboxamide], the inhibition constant (Ki) on human 5-HT3 receptor [1] stood at 30 nM. For the same compound, the inhibition at 0.1 µM at mouse 5-HT3 receptor worked out at 94.3%.

On to `Cc1nc2c(C(=O)N[C@H]3C[C@H]4CCC[C@@H](C3)N4C)cccc2o1` [Example 34, Endo-N-(9-Methyl-9-azabicyclo[3.3.1]non-3-yl)-2-methylbenzoxazole-4-carboxamide], for which the Ki on human 5-HT3 receptor [1] was 5.5 nM. On mouse 5-HT3 receptor, the inhibition at 0.1 µM worked out at 79%.

Compound `Cc1nc2c(C(=O)N[C@@H]3CN4CCC3CC4)cccc2o1` [Example 35, (S)—N-(1-Azabicyclo[2.2.2]oct-3-yl)-2-methylbenzoxazole-4-carboxamide] registered a Ki on human 5-HT3 receptor [1] of 12 nM. Further, the inhibition at 0.1 µM on mouse 5-HT3 receptor stood at 83%.

Consider `CN1[C@@H]2CCC[C@H]1C[C@@H](NC(=O)c1cccc3oc(C4(C)CC4)nc13)C2` [Example 7, Endo-N-(9-Methyl-9-azabicyclo[3.3.1]non-3-yl)-2-(1-methylcyclopropyl)benzoxazole-4-carboxamide Hydrochloride], for which the affinity on human 5-HT3 receptor [1], expressed as Ki, was 3.3 nM. In addition, on mouse 5-HT3 receptor, the inhibition at 0.1 µM was 96.7%.

`CN1[C@@H]2CCC[C@H]1C[C@@H](NC(=O)c1cccc3oc(CC4CC4)nc13)C2` [Example 11, Endo-N-(9-Methyl-9-azabicyclo[3.3.1]non-3-yl)-2-(cyclopropylmethyl)benzoxazole-4-carboxamide Hydrochloride] displayed a Ki at human 5-HT3 receptor [1] of 8.6 nM. In addition, on mouse 5-HT3 receptor, the inhibition at 0.1 µM came out at 98.6%.

In turn, `CN1[C@@H]2CCC[C@H]1C[C@@H](NC(=O)c1cccc3oc(C(C)(C)C)nc13)C2` [Example 3, Endo-N-(9-Methyl-9-azabicyclo[3.3.1]non-3-yl)-2-tert-butylbenzoxazole-4-carboxamide] yielded a Ki at human 5-HT3 receptor [1] of 4.7 nM. Moreover, the inhibition at 0.1 µM at mouse 5-HT3 receptor amounted to 104%.

`CC1(c2nc3c(C(=O)N[C@@H]4CN5CCC4CC5)cccc3o2)CC1` [Example 8, (S)—N-(1-Azabicyclo[2.2.2]oct-3-yl)-2-(1-methylcyclopropyl)benzoxazole-4-carboxamide Hydrochloride]: the Ki at human 5-HT3 receptor [1] came to 19 nM. At mouse 5-HT3 receptor, the inhibition at 0.1 µM was 97.6%.

At human 5-HT3 receptor [2], `CN1[C@@H]2CCC[C@H]1C[C@@H](NC(=O)c1cccc3oc(C4CCNCC4)nc13)C2` [Example 27, Endo-N-(9-methyl-9-azabicyclo[3.3.1]non-3-yl)-2-(piperidin-4-yl)benzoxazole-4-carboxamide Dihydrochloride] registered an inhibition constant (Ki) of 41 nM.

On to `O=C(N[C@@H]1CN2CCC1CC2)c1cc(F)cc2oc(C3CC3)nc12` [Example 19, (S)—N-(1-Azabicyclo[2.2.2]oct-3-yl)-6-fluoro-2-cyclopropylbenzoxazole-4-carboxamide Hydrochloride], for which, on human 5-HT3 receptor [1] (setting [3]), the inhibition constant (Ki) is 44 nM.

Regarding `CN1CCC(c2nc3c(C(=O)N[C@@H]4CN5CCC4CC5)cccc3o2)CC1` [Example 30, (S)—N-(1-Azabicyclo[2.2.2]oct-3-yl)-2-(1-methylpiperidin-4-yl)benzoxazole-4-carboxamide Dihydrochloride Dihydrochloride], the Ki on human 5-HT3 receptor [2] stood at 83 nM.

As for `CN1[C@@H]2CCC[C@H]1C[C@@H](NC(=O)c1cccc3nc(C(C)(C)C)oc13)C2` [Example 37, Endo-N-(9-methyl-9-azabicyclo[3.3.1]non-3-yl)-2-tert-butyl benzoxazole-7-carboxamide Hydrochloride], the Ki on human 5-HT3 receptor [2] (setting [4]) was found to be 166 nM.

On human 5-HT3 receptor [1], `CN1[C@@H]2CCC[C@H]1C[C@@H](NC(=O)c1cccc3oc(Cc4ccccc4)nc13)C2` [Example 9, Endo-N-(9-Methyl-9-azabicyclo[3.3.1]non-3-yl)-2-benzylbenzoxazole-4-carboxamide Hydrochloride] registered an inhibitory constant (Ki) of 11 nM. In addition, the inhibition at 0.1 µM on mouse 5-HT3 receptor was determined as 94.7%.

Regarding `CN1C2COCC1CC(NC(=O)c1cccc3oc(C4CCCC4)nc13)C2` (centres unmarked) [Example 32, N-(9-methyl-3-oxa-9-azabicyclo[3.3.1]non-7-yl)-2-(cyclopentyl-4-yl)benzoxazole-4-carboxamide Hydrochloride], the affinity at human 5-HT3 receptor [2], expressed as Ki, was 81.9 nM.

Consider `CN1[C@@H]2CCC[C@H]1C[C@@H](NC(=O)c1cc(F)cc3oc(C4CC4)nc13)C2` [Example 20, Endo-N-(9-Methyl-9-azabicyclo[3.3.1]non-3-yl)-6-fluoro-2-cyclopropylbenzoxazole-4-carboxamide Hydrochloride], for which the Ki at human 5-HT3 receptor [1] (setting [3]) came out at 5.4 nM.

Turning to `O=C(N[C@@H]1CN2CCC1CC2)c1cccc2oc(Cc3ccccc3)nc12` [Example 10, (S)—N-(1-Azabicyclo[2.2.2]oct-3-yl)-2-benzylbenzoxazole-4-carboxamide Hydrochloride], the Ki on human 5-HT3 receptor [1] (setting [3]) came to 21 nM.

On human 5-HT3 receptor [2], `CCN(CC)Cc1nc2c(C(=O)N[C@H]3C[C@H]4CCC[C@@H](C3)N4C)cccc2o1` [Example 41, Endo-N-(9-Methyl-9-azabicyclo[3.3.1]nonan-3-yl)-2-(diethylaminomethyl)benzoxazole-4-carboxamide Hydrochloride] had an inhibition constant (Ki) of 15.3 nM.

`O=C(N[C@@H]1CN2CCC1CC2)c1cccc2oc(C3CCNCC3)nc12` [Example 28, (S)—N-(1-Azabicyclo[2.2.2]oct-3-yl)-2-(piperidin-4-yl)benzoxazole-4-carboxamide Dihydrochloride]: the inhibitory constant (Ki) at human 5-HT3 receptor [2] (setting [4]) worked out at 111 nM.

`O=C(N[C@@H]1CN2CCC1CC2)c1cccc2oc(CN3CCOCC3)nc12` [Example 38, (S)—N-(Azabicyclo[2.2.2]oct-3-yl)-2-(morpholinomethyl)benzoxazole-4-carboxamide Hydrochloride]: the inhibition at 10 µM on human 5-HT3 receptor [2] (Assay B, 10 μM) was 74%.
